Data on 36 compounds can be found in patent publication US7524885B2, “Compounds that stimulate glucose utilization and methods of use” (The Governors of the University of Alberta, priority 2002, dated 2009).

SMILES strings stand for the structures.

The subject of one experiment is isolated working rat heart. The experiment in a line: Glucose oxidation in isolated perfused working rat heart ([U-14C]glucose, 14CO2 production). The settings on record: Table 2A; screening concentration 100 μM; isolated working rat heart; read-out: Glucose Oxidation (% above control). As to the method:
Rat hearts were cannulated for isolated working heart 60 minute aerobic perfusions as described in J Pharmacol Exp Ther. 1993; 264:135-144, the entire disclosure of which is incorporated herein by reference.
Male Sprague-Dawley rats (0.3-0.35 kg) were anesthetized with pentobarbital sodium (60 mg/kg IP) and hearts were quickly excised, the aorta was cannulated and a retrograde perfusion at 37° C. was initiated at a hydrostatic pressure of 60 mm Hg. Hearts were trimmed of excess tissue, and the pulmonary artery and the opening to the left atrium were then cannulated. After 15 min of Langendorff perfusion, hearts were switched to the working mode by clamping the aortic inflow line from the Langendorff reservoir and opening the left atrial inflow line. The perfusate was delivered from an oxygenator into the left atrium at a constant preload pressure of 11 mm Hg. Perfusate was ejected from spontaneously beating hearts into a compliance chamber (containing 1 ml of air) and into the aortic outflow line. The afterload was set at a hydrostatic pressure of 80 mm Hg. All working hearts were perfused with Krebs'-Henseleit solution containing calcium 2.5 mmol/L, glucose 5.5 mmol/L, 3% bovine serum albumin (fatty acid free, initial fractionation by heat shock, Sigma), and with 1.2 mmol/L palmitate. Palmitate was bound to the albumin as described in J Bio Chem. 1992; 267:3825-3831, the entire disclosure of which is incorporated herein by reference.
The perfusate was recirculated, and pH was adjusted to 7.4 by bubbling with a mixture containing 95% O2 and 5% CO2.
Spontaneously beating hearts were used in all perfusions. Heart rate and aortic pressure were measured with a Biopac Systems Inc. blood pressure transducer connected to the aortic outflow line. Cardiac output and aortic flow were measured with Transonic T206 ultrasonic flow probes in the preload and afterload lines, respectively. Coronary flow was calculated as the difference between cardiac output and aortic flow. Cardiac work was calculated as the product of systolic pressure and cardiac output.
Measurement of Glucose Oxidation: Glucose oxidation was measured simultaneously by perfusing hearts with [U-^14C] glucose according to the procedures discussed in Saddik M, et al., J Bio Chem. 1992; 267:3825-3831. The entire disclosure of this reference is incorporated herein by reference. The total myocardial ^14CO2 production was determined at 10-min intervals from the 60-min aerobic period. Glucose oxidation rates were determined by quantitative measurement of ^14CO2 production as described in Barbour RL, et al., Biochemistry. 1984; […]. The entire disclosure of this reference is incorporated herein by reference. ^14CO2 production for the control group were compared with the ^14CO2 production for the group treated with cyclopropanecarboxylic acid, 2-[2-(2-methoxy-ethoxy)-ethoxy]-ethyl ester. Results are shown on FIG. 1 and TABLE 2A.
The procedure of Example A for was followed except that cyclobutanecarboxylic acid, 2-[2-(2-methoxy-ethoxy)-ethoxy]-ethyl ester in 1 μM, 10 μM, 100 μM and 1000 μM amounts was added to the buffer in place of the cyclopropanecarboxylic acid, 2-[2-(2-methoxy-ethoxy)-ethoxy]-ethyl ester. The results are illustrated in FIG. 2 and TABLE 2A.
The procedure of Example A was followed except that cyclopropanecarboxylic acid, 2-isopropoxy-ethyl ester in 1 μM, 10 μM, 100 μM and 1000 μM amounts was added to the buffer in place of the cyclopropanecarboxylic acid, 2-[2-(2-methoxy-ethoxy)-ethoxy]-ethyl ester. The results are illustrated in FIG. 3 and TABLE 2A.
The procedure of Example A was followed except that various cyclobutanecarboxylic acid derivatives, cyclopropanecarboxylic acid derivatives and cyclobutanecarboxylic acid in the amounts of 100 μM or 1000 μM was added to the buffer in place of the cyclopropanecarboxylic acid, 2-[2-(2-methoxy-ethoxy)-ethoxy]-ethyl ester.
Regarding `O=C(OCCN(CCOC(=O)C1CC1)CCN(CCOC(=O)C1CC1)CCOC(=O)C1CC1)C1CC1` [Compound 23MM076, Cyclopropanecarboxylic acid 2-[{2-[bis(2-cyclopropanecarbonyloxy-ethyl)-amino]-ethyl}-(2-cyclopropanecarbonyloxy-ethyl)-amino] ethyl ester], the activation at 100 µM came out at 274%. Same read-out and setting: next, `COCCOCCOCCOC(=O)C1CC1` [Compound 1MM054, Cyclopropanecarboxylic acid 2-[2-(2-methoxy-ethoxy)-ethoxy]-ethyl ester]: 102%; `O=C(OCCOCCOCCOC(=O)C1CCC1)C1CCC1` [Compound 22MM075, Cyclobutanecarboxylic Acid, 2-[2-(2-cyclobutanecarbonyloxy-ethoxy)-ethoxy]-ethyl ester]: 184%. On the same count and under the same terms, next, `COCCOCCOC(=O)C1CCC1` [Compound 14MM067, Cyclobutanecarboxylic acid 2-(2-methoxy-ethoxy)-ethyl ester]: 50%; `O=C(OCCOCCOC(=O)C1CCC1)C1CCC1` [Compound 20MM073, Cyclobutanecarboxylic acid, 2-(2-cyclobutanecarbonyloxy-ethoxy)-ethyl ester]: 243%; `CCCCCCOCCOCCOC(=O)C1CCC1` [Compound 12MM065, Cyclobutanecarboxylic acid 2-(2-hexyloxy-ethoxy)-ethyl ester]: 0%.

As to `COCCOCCOCCOC(=O)C1CCC1` [Compound 3MM056, Cyclobutanecarboxylic Acid, 2-[2-(2-methoxy-ethoxy)-ethoxy]-ethyl ester], the activation at 100 µM is 54%. Same read-out and setting: as for `CN(C)CCOCCOC(=O)C1CCC1` [Compound 10MM063, Cyclobutanecarboxylic acid 2-(2-dimethylamino-ethoxy)-ethyl ester], the figure is 41%. The same measure, in the same setting: next, `CCCCCCOCCOCCOC(=O)C1CC1` [Compound 11MM064, Cyclopropanecarboxylic acid 2-(2-hexyloxy-ethoxy)-ethyl ester]: 83%.

Turning to `CCCCOCCOCCOC(=O)C1CCC1` [Compound 7MM060, Cyclobutanecarboxylic acid, 2-(2-butoxy-ethoxy)-ethyl ester], the activation at 100 µM is 65%. Still for that read-out and setting: as for `O=C(OCCOCCOCc1ccccc1)C1CC1` [Compound 4MM057, Cyclopropanecarboxylic acid 2-(2-benzyloxy-ethoxy)-ethyl ester], the figure is 104%. On the same count and under the same terms, next, `O=C(OCCOCCOCc1ccccc1)C1CCC1` [Compound 6MM059, Cyclobutanecarboxylic acid 2-(2-benzyloxy-ethoxy)-ethyl ester]: 68%; `CC(C)OCCOC(=O)[C@@H]1C[C@H]1c1ccccc1` (racemic) [Compound 25MM078, trans-2-Phenyl-cyclopropanecarboxylic acid 2-isopropoxy-ethyl ester]: 200%. On the same count and under the same terms, as for `CN(C)CCOCCOC(=O)C1CC1` [Compound 9MM062, Cyclopropanecarboxylic acid 2-(2-dimethylamino-ethoxy)-ethyl ester], the figure is 77%. For `CC(C)OCCOC(=O)C1CCC1` [Compound 18MM071, Cyclobutanecarboxylic acid 2-isopropoxy-ethyl ester], the activation at 100 µM came to 97%. As for `CCOCCOC(=O)C1CC1` [Compound 15MM068, Cyclopropanecarboxylic acid 2-ethoxy-ethyl ester], the activation at 100 µM is 416%.

Staying with this experiment, now noted: Table 2A; screening concentration 1000 μM; isolated working rat heart; read-out: Glucose Oxidation (% above control).
Take `CC(NC(=O)C1CC1)C(=O)O` (stereo not drawn) [Compound 5MM058, 2-(Cyclopropanecarbonyl-amino)-propionic acid]: the activation at 1000 µM amounted to 40%.

Staying with this experiment, now noted: Table 2B; screening concentration 100 μM; isolated working rat heart; read-out: Glucose Oxidation (% above control).
`COCCOCCOCCOC(=O)C1(c2ccccc2)CC1` [Compound 44MM097, 1-phenyl-cyclopropanecarboxylic acid 2[2-(2-methoxy-ethoxy)-ethoxy]-ethyl ester]: the activation at 100 µM was 125%. Same read-out and setting: next, `CCOCCOC(=O)C1(C)CC1` [Compound 28MM081, 1-Methyl-cyclopropanecarboxylic acid, 2-Ethoxy-ethyl ester]: 121%; `COC(=O)CSC(=O)C1CC1` [Compound 37MM090, Cyclopropanecarbonylsulfanyl-acetic acid methyl ester]: 251%.

For the compound `O=C(SCc1ccco1)C1CC1` [Compound 42MM095, Cyclopropanecarbothioic acid S-furan-2-yl methyl ester], the activation at 100 µM amounted to 314%. For `CC(=O)NCCSC(=O)C1CC1` [Compound 38MM091, Cyclopropanecarbothioic acid S-(2-acetylamino-ethyl) ester], the activation at 100 µM is 176%.

As for `Cc1ncsc1CCOC(=O)C1CC1` [Compound 36MM089, Cyclopropanecarboxylic acid 2-(4-methyl-thiazol-5-yl)-ethyl ester], the activation at 100 µM is 202%. On the same count and under the same terms, next, `COCCOC(=O)C1CC1` [Compound 30MM083, Cyclopropanecarboxylic acid, 2-Methoxy-ethyl ester]: 197%.

Turning to `CCOCCOC(=O)C1(C)CC1(Cl)Cl` (stereo not drawn) [Compound 33MM086, 2,2-Dichloro-1-methyl-cyclopropanecarboxylic acid 2-ethoxy-ethyl ester], the activation at 100 µM was found to be 117%. Still for that read-out and setting: next, `O=C(OCCN1CCOCC1)C1CC1` [Compound 39MM092, Cyclopropanecarboxylic acid 2-morpholin-4-yl-ethyl ester]: 233%; `CCOCCOC(=O)C1(c2ccccc2)CC1` [Compound 27MM080, 1-Phenyl-cyclopropanecarboxylic acid 2-ethoxy-ethyl ester]: 148%; `CCOCCOC(=O)C1C(C)(C)C1(C)C` [Compound 29MM082, 2,2,3,3-Tetramethyl-cyclopropanecarboxylic acid, 2-Ethoxy-ethyl ester]: 110%. Same read-out and setting: as for `CCOCCOC(=O)[C@]1(/C=C/c2ccccc2)C[C@H]1c1ccccc1` [Compound 34MM087, (1S,2S)-2-phenyl-1-styrl-cyclopropanecarboxylic acid 2 ethoxy-ethyl ester], the figure is 112%. Same read-out and setting: next, `O=C(OCCOC(=O)C1(c2ccccc2)CC1)C1(c2ccccc2)CC1` [Compound 46MM099, 1-(1-Phenyl-1-cyclopropanecarboxylic acid)-2-(1-phenyl-1-cyclopropanecarbonyloxy)-ethyl ester]: 93%. As for `CCOCCOC(=O)C1(c2ccc(OC)cc2)CC1` [Compound 43MM096, 1-(4-methoxy-phenyl)-cyclopropanecarboxylic acid 2-ethoxy-ethyl ester], the activation at 100 µM was 93%. Still for that read-out and setting: as for `O=C(OC[C@H]1O[C@H](OC(=O)C2CC2)[C@H](OC(=O)C2CC2)[C@@H](OC(=O)C2CC2)[C@@H]1OC(=O)C1CC1)C1CC1` [Compound 35MM088, 1,2,3,4,6-penta-O-(cyclopropanecarbonyl)-D-glucopyranose], the figure is 205%; as for `CCOCCOC(=O)C1CC1C` (stereo not drawn) [Compound 32MM085, Trans-2-methyl-cyclopropanecarboylic acid 2-ethoxy-ethyl ester], 150%; as for `CCC1(COC(=O)C2CC2)COCOC1` [Compound 40MM093, Cyclopropanecarboxylic acid 5-ethyl-[1,3]-dioxan-5.ylmethyl ester], 260%.

Still in this experiment, the particulars now being: intact heart.
Consider `O=C(O)C1CCC1` [MM013, Cyclobutanecarboxylic acid], for which the “stimulation of glucose oxidation in the heart (in words)” value is listed as “stimulate glucose oxidation”. On the same count and under the same terms, as for `O=C(O)C1CC1` [MM001, Cyclopropanecarboxylic acid], the entry is “stimulator of glucose oxidation”.
